Experimental data: US5258377A, “2-spirocyclopropyl 4-acylcephems” (Taiho Pharmaceutical Co., Ltd., priority 1991, dated 1993)

Biological target: T1, human leukocyte elastase (HLE) (Homo sapiens, UniProt P08246)
T1 sequence (P08246 30-247 limits assumed): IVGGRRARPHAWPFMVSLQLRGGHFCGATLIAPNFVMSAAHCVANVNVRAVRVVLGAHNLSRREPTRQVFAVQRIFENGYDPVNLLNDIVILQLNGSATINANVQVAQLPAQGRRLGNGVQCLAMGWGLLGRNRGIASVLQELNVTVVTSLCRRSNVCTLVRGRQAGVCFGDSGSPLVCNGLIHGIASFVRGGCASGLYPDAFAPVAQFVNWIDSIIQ
Test: in vitro anti-elastase activity against human leukocyte elastase (HLE)
Assay type: biochemical

| IC50 | Compound |
| --- | --- |
| 7.4 nM | CCCCC(=O)C1=C(C)C2(CC2(c2ccccc2)c2ccccc2)S(=O)(=O)[C@@H]2[C@@H](OC)C(=O)N12 (stereo partly drawn) [Compd 3, 7α-Methoxy-2-spiro(2',2'-diphenyl)cyclopropyl-3-methyl-3-cephem-4-butylcarbonyl 1,1-dioxide] |
| 8.9 nM | CC1=C(C(=O)c2ccccc2)N2C(=O)[C@H](Cl)[C@H]2S(=O)(=O)C12CC2(c1ccccc1)c1ccccc1 (stereo partly drawn) [Compd 4, 7α-chloro-2-spiro (2',2'-diphenyl)cyclopropyl-3-methyl-3-cephem-4-phenylcarbonyl 1,1-dioxide] |
| 12 nM | CO[C@H]1C(=O)N2C(C(=O)C(C)(C)C)=C(C)C3(CC3(c3ccccc3)c3ccccc3)S(=O)(=O)[C@H]12 (stereo partly drawn) [Compd 6, 7α-Methoxy-2-spiro(2',2'-diphenyl)cyclopropyl-3-methyl-3-cephem-4-t-butylcarbonyl 1,1-dioxide] |
| 6.3 nM | CC1=C(C(=O)C(C)(C)C)N2C(=O)[C@H](Cl)[C@H]2S(=O)(=O)C12CC2(c1ccccc1)c1ccccc1 (stereo partly drawn) [Compd 5, 7α-Chloro-2-spiro(2',2'-diphenyl)cyclopropyl-3-methyl-3-cephem-4-t-butylcarbonyl 1,1-dioxide] |
| 10.3 nM | CCC(=O)C1=C(C)C2(CC2(c2ccccc2)c2ccccc2)S(=O)(=O)[C@@H]2[C@@H](OC)C(=O)N12 (stereo partly drawn) [Compd 2, 7α-Methoxy-2-spiro (2',2'-diphenyl)cyclopropyl-3-methyl-3-cephem-4-ethylcarbonyl 1,1-dioxide] |
